Measurements taken from patent US20210353595A1, “USE OF MELATONIN IN PREPARATION OF MEDICAMENT FOR INHIBITING AND/OR KILLING BACTERIUM” (priority 2020, published 2021).

Experiments:
Pasteurella multocida [1] = assay: Growth curve with exogenous citric acid; format: cell-based; details: citric acid 1, 2, 3 mg/mL alone; FIG. 16
Experimental: Here, 1 mL of Pasteurella multocida (1×10^9 CFU) at the logarithmic growth stage was added into 100 mL of fresh and sterile Martin broth medium containing different concentrations of citric acid (CA-1 mg/ml, CA-2 mg/mL, and CA-3 mg/mL), and citric acid-free DMSO was used as a solvent control group. The bacterial cells were cultured in a constant-temperature shaker at 37° C. and 220 rpm for […]. Then, the growth curve of the cells was determined. Each experiment was repeated for three times, and each group was set in triplicate.

Klebsiella pneumoniae = assay: Growth curve with melatonin and citric acid; format: cell-based; details: MT 1-3 mg/mL with CA 1-3 mg/mL, FIG. 27
Experimental: (§1) In additional studies, 1 mL of Klebsiella pneumoniae, Pseudomonas aeruginosa, Diplococcus pneumoniae and Streptococcus pneumoniae at the logarithmic growth stage was added into 100 mL of fresh and sterile Martin broth medium containing different concentrations of melatonin and citric acid (CA) (MT-1 mg/mL, MT-1 mg/mL-CA-1 mg/mL, MT-1 mg/mL-CA-2 mg/mL, MT-1 mg/mL-CA-3 mg/mL; MT-2 mg/mL, MT-2 mg/mL-CA-1 mg/mL, MT-2 mg/mL-CA-2 mg/mL, MT-2 mg/mL-CA-3 mg/mL; MT-3 mg/mL, MT-3 mg/mL-CA-1 mg/mL, MT-3 mg/mL-CA-2 mg/mL MT-3 mg/mL-CA-3 mg/mL).

Pseudomonas aeruginosa = assay: Growth curve with melatonin and citric acid; format: cell-based; details: MT 1-3 mg/mL with CA 1-3 mg/mL, FIG. 27
Experimental: as §1

Pasteurella multocida [2] = assay: Growth curve with melatonin and citric acid; format: cell-based; details: MT 1-3 mg/mL with CA 1-3 mg/mL, 12 h; FIG. 17
Experimental: 1 mL of Pasteurella multocida (1×10^9 CFU) at the logarithmic growth stage was also added into 100 mL of fresh and sterile Martin broth medium containing different concentrations of melatonin and citric acid (CA) (MT-1 mg/mL, MT-1 mg/mL-CA-1 mg/mL, MT-1 mg/mL-CA-2 mg/mL, MT-1 mg/mL-CA-3 mg/mL; MT-2 mg/mL, MT-2 mg/mL-CA-1 mg/mL, MT-2 mg/mL-CA-2 mg/mL, MT-2 mg/mL-CA-3 mg/mL; MT-3 mg/mL, MT-3mg/mL-CA-1 mg/mL, MT-3 mg/mL-CA-2 mg/mL, and MT-3 mg/mL-CA-3 mg/mL). DMSO not containing melatonin and citric acid was used as a solvent control group, and the bacterial cells were cultured in a constant-temperature shaker at 37° C. and 220 rpm for 12 h. Then the growth curve of the cells were determined. Each experiment was carried out for three times, and each group was set in triplicate.

P. multocida cells = assay: SEM and TEM morphology of bacterial cells; format: cell-based, Pasteurella multocida; details: combined action of melatonin and citric acid; FIG. 18
Experimental: The effect of melatonin on the morphologies of P. multocida cells were evaluated employing SEM and TEM. 1 mL of fresh Pasteurella multocida (1×10^9 CFU) at the logarithmic growth stage was added into 100 mL of fresh Martin liquid medium containing different concentrations (1, 2 or 3 mg/mL) of MT. MT-free DMSO was used as a solvent control group and ampicillin (100 μg/mL) was used as a positive control group. All cultures were shaken at 220 rpm in a shaker at 37° C. for 8 hours, 12 hours or 16 hours. The bacterial samples were centrifuged at 3000 r/min for 10 minutes, the supernatant was removed, and cells were collected and washed with PBS for 3 times. Then the cells were fixed with a fixation solution of 2.5% fresh glutaraldehyde for 6 hours, and washed with PBS for 3 times, each time for 10 minutes. Subsequently, the SEM samples were dehydrated with 50%, 70%, 80% and 90% ethanol for 15 minutes respectively, and then dehydrated with 100% ethanol for 3 times, each time for 30 minutes. Ethanol was removed by washing with tert-butyl alcohol for three times, each time for 30 minutes. The samples were dried by a freeze dryer and plated with 10 nm of gold film by an ion sputtering device. The samples were examined using a field scanning electron microscope (FESEM, Hitch SU8010).
The TEM samples were fixed with 1%-2% […] for 2-3 hours, and washed with […] 3 times, each time for 10 minutes. The samples were dehydrated with 30%, 50%, 70%, 80% and 90% ethanol for 20 minutes respectively, and then dehydrated with 100% ethanol 3 times, each time for 30 minutes. Ethanol was replaced with acetone three times, each time for 30 minutes. The bacterial samples were placed on a copper grid with a formvar membrane, and negatively stained with phosphotungstic acid (2% v/v, pH=6.7). The surface area of the sample was less than 0.2 mm×0.2 mm, and slice thickness was between 50 and 90 nm (Lycra UC7). The samples were detected by TEM (Hitachi H-7650) at 80 kV, and photographs of the samples were taken by a Gatan832 CCD camera (Gatan). […]

Pasteurella multocida [3] = assay: Leakage of cell contents with melatonin and citric acid; format: cell-based; details: MT with CA (1/1, 2/2, 3/3 mg/mL), 12 h
Experimental: Additionally, 1 mL of Pasteurella multocida (1×10^9 CFU) at the logarithmic growth stage was added into 100 mL of fresh and sterile Martin broth medium containing different concentrations of melatonin and citric acid (CA) (MT-1 mg/mL, MT-2 mg/mL, MT-3 mg/mL, CA-1 mg/mL, CA-2 mg/mL, CA-3 mg/mL, MT-1 mg/mL-CA-1 mg/mL, MT-2 mg/mL-CA-2 mg/mL, MT-3 mg/mL-CA-3 mg/mL). The melatonin-free DMSO was used as a solvent control group, and the bacterial cells were cultured in a shaker at 37° C. and 220 rpm for 12 h. Thereafter, 1 mL of the bacterial solution was taken and centrifuged at 3000 r/min for 10 minutes, and the supernatant and precipitated cells were collected, respectively. At the same time, 2.5 mmol/mL of […] (ONPG) and Pasteurella multocida were added to detect ([…]. The concentrations of protein, alkaline phosphatase (AKP) and reducing sugar in the supernatant were determined sequentially using respective determination kits. The β-galactosidase in the supernatant was determined by measuring the optical density at 420 nm (OD420). Each experiment was carried out for three times, and each group was set in triplicate.

## O=C(O)CC(O)(CC(=O)O)C(=O)O [citric acid]
Pasteurella multocida [1]
  growth of Pasteurella multocida: promotes the growth
Klebsiella pneumoniae
  effect of exogenous citric acid on bacteriostatic effect of melatonin: can reduce the bacteriostatic effect of melatonin
Pseudomonas aeruginosa
  effect of exogenous citric acid on bacteriostatic effect of melatonin: can reduce the bacteriostatic effect of melatonin
Pasteurella multocida [2]
  effect of added citric acid on antibacterial activity of melatonin: reduces the antibacterial activity of melatonin
P. multocida cells
  cytoplasmic vacuolization and irregular cell membrane caused by melatonin (TEM): disappeared
Pasteurella multocida [3]; FIG. 19
  melatonin-induced release of reducing sugar: significantly reduces
Pasteurella multocida [3]; FIG. 20
  melatonin-induced release of proteins: significantly reduces
Pasteurella multocida [3]; FIG. 21
  melatonin-induced release of AKP enzymes (alkaline phosphatase): significantly reduces
Pasteurella multocida [3]; FIG. 22
  melatonin-induced release of β-galactosidase: significantly reduces
Pasteurella multocida [3]; FIG. 23
  melatonin-induced activity (release) of ATPase: significantly reduces
